In patent US12643858B2 (Inipharm, Inc., priority 2020, dated 2026) one finds IC50 data, which are given here for 17 compounds.

Broadly, the IC50 is the concentration that inhibits the measured activity by half. Read a high IC50 as a need for much substance.

The test addresses T1, HSD17B13 enzyme (Homo sapiens, UniProt Q7Z5P4).
T1 construct: His; made in house; host or cells: E. coli
T1 sequence (Q7Z5P4 20-300): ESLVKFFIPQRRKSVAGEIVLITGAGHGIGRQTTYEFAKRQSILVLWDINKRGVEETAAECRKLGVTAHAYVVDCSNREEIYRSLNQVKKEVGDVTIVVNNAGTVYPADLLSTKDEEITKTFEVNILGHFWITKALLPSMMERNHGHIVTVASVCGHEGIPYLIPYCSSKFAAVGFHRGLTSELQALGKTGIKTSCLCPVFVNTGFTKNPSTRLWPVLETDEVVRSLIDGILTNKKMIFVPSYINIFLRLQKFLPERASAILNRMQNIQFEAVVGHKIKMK
Description: NADH detection assay (fluorescence based LTB3 assay) for HSD17B13 activity. The class given is biochemical. To be noted: substrate 25 μM LTB3, 3 mM NAD+, 125 nM HSD17B13 enzyme, 1 hour at 26.5° C. How it is done: Example A: NADH Detection Assay for Evaluation of HSD17ß13 Activity and Identification of Inhibitors
The fluorescence based Leukotriene B3 (LTB3) assay monitors the fluorescence of NADH, which is generated from NAD+ during the dehydrogenation of the substrate LTB3. The reactions were performed in a 384-well plates (Greiner; #655076) in a 20 μl reaction volume containing the following reagents (final concentrations): 25 μM LTB3 (Cayman; #20109); 3 mM NAD+ (Sigma; #N0623); 125 nM HSD17B13 enzyme (in-house; E. coli expressed His-tagged, purified, soluble protein); […] potassium phosphate buffer, pH 7.4; and 1% DMSO. Reactions were initiated by co-addition of NAD+ and enzyme, and monitored for 1 hour at 26.5° C. Generation of NADH was measured as the fluorescence signal (Excitation at 340 nm and Emission at 445 nm) at 1 hour minus the baseline fluorescence at t=0. Fluorescence signals in the absence of LTB3 (negative control values), were subtracted from all values so that the results reflected substrate-dependent production of NADH. NADH standards were included to allow the conversion of relative fluorescence units into rates of enzyme activity. Enzyme activity in the presence of test compounds was expressed as a percentage of the uninhibited enzyme activity, and plotted versus inhibitor concentration. Non-linear regression was performed using a four-parameter logistic model and GraphPad Prism software (GraphPad Software, La Jolla, CA). Ten concentrations of inhibitor were tested (in the range of 30 μM-2.5 nM), and two independent assessments were performed at each concentration.

On to `CN1CCN(S(=O)(=O)c2cccc(-c3cccc(Oc4ccc(F)c(O)c4)n3)c2)CC1` [Example 43, 2-fluoro-5-((6-(3-((4-methylpiperazin-1-yl)sulfonyl)phenyl)pyridin-2-yl)oxy)phenol], for which the IC50 lay in the range of 5 to 10 µM.

Take `O=S(=O)(c1cccc(-c2cccc(Oc3ccc(F)c(O)c3)n2)c1)N1CCOCC1` [Example 44, 2-fluoro-5-((6-(3-(morpholinosulfonyl)phenyl)pyridin-2-yl)oxy)phenol]: the IC50 was no more than 5 µM.

Compound `O=S(=O)(Nc1ccccc1)c1cccc(-c2cccc(Oc3ccc(F)c(O)c3)n2)c1` [Example 45, 3-(6-(4-fluoro-3-hydroxyphenoxy)pyridin-2-yl)-N-phenylbenzene sulfonamide] showed an IC50 of no more than 5 µM.

In the case of `CC(=O)N1CCOc2cc(-c3cccc(Oc4ccc(F)c(O)c4)n3)ccc21` [Example 46, 1-{7-[6-(4-fluoro-3-hydroxyphenoxy)pyridin-2-yl]-3,4-dihydro-2H-1,4-benzoxazin-4-yl}ethan-1-one], the IC50 was no more than 5 µM.

The compound `Nc1nc2cc(-c3cccc(Oc4ccc(F)c(O)c4)n3)ccc2s1` [Example 47, 5-((6-(2-aminobenzo[d]thiazol-5-yl)pyridin-2-yl)oxy)-2-fluorophenol] showed an IC50 of no more than 5 µM.

The compound `O=S(=O)(c1cccc(-c2cccc(Oc3ccc(F)c(O)c3)n2)c1)N1CCNCC1` [Example 48, 2-fluoro-5-((6-(3-(piperazin-1-ylsulfonyl)phenyl)pyridin-2-yl)oxy) phenol] had an IC50 greater than 30 µM.

With `NS(=O)(=O)c1cccc(-c2cccc(Oc3ccc(F)c(O)c3)n2)c1` [Example 49, 3-[6-(4-fluoro-3-hydroxyphenoxy)pyridin-2-yl]benzene-1-sulfonamide], the IC50 was 5 to 10 µM.

On to `Oc1cc(Oc2cccc(-c3ccc4scnc4c3)n2)ccc1F` [Example 50, 5-{[6-(1,3-benzothiazol-5-yl)pyridin-2-yl]oxy}-2-fluorophenol], for which the IC50 is no more than 5 µM.

Compound `O=C1COc2cc(-c3cccc(Oc4ccc(F)c(O)c4)n3)ccc2N1` [Example 51, 7-(6-(4-fluoro-3-hydroxyphenoxy)pyridin-2-yl)-2H-benzo[b][1,4]oxazin-3(4H)-one] registered a concentration for half-maximal inhibition (IC50) greater than 30 µM.

As to `COc1cccc(-c2cccc(Oc3ccc(F)c(C(F)F)c3)n2)c1F` [Example 52, 2-[3-(difluoromethyl)-4-fluorophenoxy]-6-(2-fluoro-3-methoxyphenyl) pyridine], the half-maximal inhibitory concentration (IC50) is greater than 30 µM.

With `CN1C(=O)COc2cc(-c3cccc(Oc4ccc(F)c(O)c4)n3)ccc21` [Example 53, 7-(6-(4-fluoro-3-hydroxyphenoxy)pyridin-2-yl)-4-methyl-2H-benzo[b][1,4]oxazin-3(4H)-one], the IC50 was no more than 5 µM.

The compound `CNc1cccc(-c2cccc(Oc3ccc(F)c(O)c3)n2)c1` [Example 54, 2-fluoro-5-({6-[3-(methylamino)phenyl]pyridin-2-yl}oxy)phenol] registered an IC50 of no more than 5 µM.

Compound `O=S(=O)(c1ccc(F)c(O)c1)c1cccc(-c2cccc(O)c2F)n1` [Example 55, 2-fluoro-3-[6-(4-fluoro-3-hydroxybenzenesulfonyl)pyridin-2-yl]phenol] had an IC50 of 5 to 10 µM.

`Oc1cccc(-c2cccc(Oc3ccc4c(c3)NCCO4)n2)c1F` [Example 56, 3-[6-(3,4-dihydro-2H-1,4-benzoxazin-6-yloxy)pyridin-2-yl]-2-fluorophenol] displayed an IC50 greater than 30 µM.

Compound `CS(=O)(=O)Nc1cc(Oc2cccc(-c3cccc(O)c3F)n2)ccc1F` [Example 57, N-(2-fluoro-5-{[6-(2-fluoro-3-hydroxyphenyl)pyridin-2-yl]oxy}phenyl)methane-sulfonamide] registered an IC50 greater than 30 µM.

Take `O=c1[nH]c2ccc(-c3cccc(Oc4ccc(F)c(O)c4)n3)cc2[nH]1` [Example 58, 5-(6-(4-fluoro-3-hydroxyphenoxy)pyridin-2-yl)-1,3-dihydro-2H-benzo[d]imidazol-2-one]: the IC50 was no more than 5 µM.

In the case of `Oc1cc(Oc2cccc(-c3ccc4c(c3)NCCO4)n2)ccc1F` [Example 59, 5-((6-(3,4-dihydro-2H-benzo[b][1,4]oxazin-6-yl)pyridin-2-yl)oxy)-2-fluorophenol], the IC50 is no more than 5 µM.
